Like-named read-outs stand apart in the source and are kept apart here. Ends that are not written are not given here.

Data set [1] concerns Clone 18. The experiment in a line: MTT assay of drug sensitivity, Clone 18 cells. To be noted: for Fold of resistance (Clone 18/M2182tTA): IC50 of clone 18 divided by IC50 of M2182tTA; for Effect on taxol resistance / taxol cytotoxicity of clone 18: agent added with taxol, MTT assay. (In general: Tetrazolium assays rely on reduction of a dye to a coloured formazan, in cell work by metabolically active cells.)
Protocol: (§1) For subsequent plate assays of the effects of taxol and other drugs on colony formation, 1×10^4 cells per 10 cm plate or per each well of six-well plate were seeded one day prior to drug treatment at the concentrations indicated. After 7 to 14 days exposure to drug, the resistant colonies were stained with 0.5% crystal violet solution and photographed. For quantitative determination of the surviving fraction, the collection of crystal violet stained colonies were incubated with 0.5 ml of DMSO overnight and the absorbance at 570 nm of dye extracted solution was measured. The fraction of surviving cells was calculated relative to non-treated controls. Results were averaged from at least two to three independent experiments. For IC50 determination, 3×10^3 cells per well of a 96-well plate were seeded one day prior to treatment by serially diluted drugs or in combination with indicated protein/peptides. The viability of treated cells was quantified by their ability to reduce tetrazolium salt 3-(4,5-dimethylthiazol-2-y)-2,5-diphenyl tetrasodium bromide (MTT, Sigma) to a formazan dye whose absorbance is detectable at 570 nm. The IC50 value was defined as the dose of taxol that inhibited cell growth by 50%.

The subject of data set [2] is M2182tTA. The experiment in a line: MTT assay of drug sensitivity, M2182tTA cells. In kind it is cell-based, human. To be noted: for Effect on killing of naive M2182tTA cells by taxol: agent added with taxol.
Protocol: as §1
Data set [3] relates to Clone 18 cells. The experiment in a line: TUNEL assay of apoptosis, clone 18 cells. The data set is classed as cell-based, human. The conditions noted are these: clone 18, TSP-1 plus taxol.
Protocol: For subsequent plate assays of the effects of taxol and other drugs on colony formation, 1×10^4 cells per 10 cm plate or per each well of six-well plate were seeded one day prior to drug treatment at the concentrations indicated. After 7 to 14 days exposure to drug, the resistant colonies were stained with 0.5% crystal violet solution and photographed. For quantitative determination of the surviving fraction, the collection of crystal violet stained colonies were incubated with 0.5 ml of DMSO overnight and the absorbance at 570 nm of dye extracted solution was measured. The fraction of surviving cells was calculated relative to non-treated controls. Results were averaged from at least two to three independent experiments. For IC50 determination, 3×10^3 cells per well of a 96-well plate were seeded one day prior to treatment by serially diluted drugs or in combination with indicated protein/peptides. The viability of treated cells was quantified by their ability to reduce tetrazolium salt 3-(4,5-dimethylthiazol-2-y)-2,5-diphenyl tetrasodium bromide (MTT, Sigma) to a formazan dye whose absorbance is detectable at 570 nm. The IC50 value was defined as the dose of taxol that inhibited cell growth by 50%. […]
The subject of data set [4] is Clone 18.
Protocol: as §1
[5] abbreviates: agent added with adriamycin, etoposide, vinblastine, vincristine or epothilone B.

For the compound `COc1cccc2c1C(=O)c1c(O)c3c(c(O)c1C2=O)C[C@@](O)(C(=O)CO)C[C@@H]3O[C@H]1C[C@H](N)[C@H](O)[C@H](C)O1` [Adriamycin, adriamycin], the “Reduced killing of clone 18 cells (versus parental cells)” value (“Reduced killing of clone 18 cells” for short) in data set [1] is “No evidence of reduced killing”.
For `C/C(=C\c1csc(C)n1)[C@@H]1C[C@@H]2O[C@]2(C)CCC[C@H](C)[C@H](O)[C@@H](C)C(=O)C(C)(C)[C@@H](O)CC(=O)O1` [Epothilone B], in data set [1], the “Reduced killing of clone 18 cells” value is recorded as “No evidence of reduced killing” and the “Fold of resistance (Clone 18/M2182tTA)” value was 0.9.
As to `COc1cc([C@@H]2c3cc4c(cc3[C@@H](O[C@@H]3O[C@@H]5CO[C@@H](C)O[C@H]5[C@H](O)[C@H]3O)[C@H]3COC(=O)[C@H]23)OCO4)cc(OC)c1O` [Etoposide, etoposide], the “Reduced killing of clone 18 cells” value in data set [1] is given as “No evidence of reduced killing”.
On to `CC(=O)O[C@H]1C(=O)[C@@]2(C)[C@H]([C@H](OC(=O)c3ccccc3)[C@]3(O)C[C@H](OC(=O)[C@H](O)[C@@H](NC(=O)c4ccccc4)c4ccccc4)C(C)=C1C3(C)C)[C@]1(OC(C)=O)CO[C@@H]1C[C@@H]2O` [Taxol, Paclitaxel], for which, in data set [1], the “Fold of resistance (Clone 18/M2182tTA)” value was “approximately two and a half-fold greater”.
In the case of `CC[C@]1(O)C[C@@H]2CN(CCc3c([nH]c4ccccc34)[C@@](C(=O)OC)(c3cc4c(cc3OC)N(C)[C@H]3[C@@](O)(C(=O)OC)[C@H](OC(C)=O)[C@]5(CC)C=CCN6CC[C@]43[C@@H]65)C2)C1` [Vinblastine, vinblastine], the “Reduced killing of clone 18 cells” value in data set [1] is on record as “No evidence of reduced killing”.
Same read-out and setting: under `CC[C@]1(O)C[C@H]2CN(CCc3c([nH]c4ccccc34)[C@@](C(=O)OC)(c3cc4c(cc3OC)N(C=O)[C@H]3[C@@](O)(C(=O)OC)[C@H](OC(C)=O)[C@]5(CC)C=CCN6CC[C@]43[C@@H]65)C2)C1` [Vincristine, vincristine] stands “No evidence of reduced killing”.
In the case of GVITRIR (human) [ABT-510], the “Effect on taxol resistance / taxol cytotoxicity of clone 18” value in data set [1] is on record as “absence of any detectable effect”; in data set [1] (listed as ABT510), “no effect”. The “Effect on killing of naive M2182tTA cells by taxol” value in data set [2] (MTT assay) was “not and absence of any detectable effect”.
KRFYGGMWKK [4NGG]: the “Effect on taxol resistance / taxol cytotoxicity of clone 18” value in data set [1] is “no effect”.
Same read-out and setting: the value for KRFYVVMWKK [4N1K] was “dose-dependent partial reversal”.
As for “TSP-1: TSP-1 purified from human platelets; extracellular matrix bound adhesive glycoprotein”, the “Ability of TSP-1 alone to reduce survival and induce apoptosis” value in data set [1] (TSP-1 alone, at the dosage added to cultures of clone 18 cells) was “only limited ability to reduce survival and induce apoptosis”. In data set [1] (setting [5]), the “Effect on killing of clone 18 cells by other chemotherapeutic agents” value is listed as “no effects”. Further, in data set [3], the Taxol-induced apoptosis result is “dramatically and synergistically increased”. Further, in data set [2] (setting [5]), the “Effect on sensitivity of M2182tTA cells to other chemotherapeutic drugs” value was “sensitization was not observed”. The “Effect on killing of naive M2182tTA cells by taxol” value in data set [2] (MTT assay) is given as “reduced survival”. Besides, the “Effect on taxol resistance / taxol cytotoxicity of clone 18” value in data set [4] is “dose-dependent partial reversal”.
pertussus toxin: the “Cells that survive taxol treatment” value in data set [2] (M2182tTA, 0.5 μg/ml pertussis toxin, MTT assay) is recorded as “An increase in cells that survive taxol treatment”.

Source of the values: patent US20070209082A1, “Txr1 and enhanced taxane sensitivity based on the modulation of a pathway mediated thereby” (priority 2005, published 2007).
